This is an account of results in publication PMC6572184, “New γ-Halo-δ-lactones and δ-Hydroxy-γ-lactones with Strong Cytotoxic Activity” (Molecules, 2019).

The test system of one data set is Escherichia coli ATCC 8739. The data set is described as follows: Bactericidal activity, CFU counting method. As to conditions: E. coli ATCC 8739; 18 h at 37 °C; Control 9.47, Control with DMSO 9.30. The data set is classed as cell-based. As to the method: (§1) The bacterial cultures: Escherichia coli ATCC 8739 and Staphylococcus aureus ATCC 65389 were grown on Luria–Bertani Agar for 18 h at 37 ^∘ C. The strain suspension was prepared in 0.85% saline, with an optical density equivalent to a 0.5 McFarland standard. Next, the following mixtures were prepared: 180 μ L of sterile enriched broth (BTL), 10 μ L of the bacterial suspension and 10 μ L of the tested compound (range 0.1–50 μ g/mL) solubilized in DMSO. As a negative control, only DMSO was added. As a sterility control, 180 μ L of BTL and 20 μ L saline were used. The microtiter plate was incubated at 37 ^∘ C for 18 h. The colony forming unit (CFU) method was used to evaluate the microbial population. The experiment was repeated three times. Gentamicin was used as the reference antibiotic.
For the molecule `CC1CC(=O)OC(c2ccccc2)C1Cl` (mixture of isomers) [6b, Cis,trans-5-chloro-tetrahydro-4-methyl-6-phenylpyran-2-one], the “Number of CFU/mL (× 10^7)” value is listed as 6.32 × 10^7 CFU/mL.
On the same count and under the same terms, the value for `CC1CC(=O)OC(c2ccc(F)cc2)C1Cl` (mixture of isomers) [6c, Cis,trans-5-chloro-6-(4-fluorophenyl)-tetrahydro-4-methylpyran-2-one] was 2.06 × 10^7 CFU/mL.

Staying with this data set, now noted: E. coli ATCC 8739; versus control.
As for `CC1CC(=O)OC(c2ccc(F)cc2)C1Cl` (mixture of isomers) [6c, Cis,trans-5-chloro-6-(4-fluorophenyl)-tetrahydro-4-methylpyran-2-one], the “less CFU/mL (reduction of the number of CFU/mL)” value is 70–78%.

Another data set deals with Staphylococcus aureus ATCC 65389. Nature of the data set: Bactericidal activity, CFU counting method. To be noted: S. aureus ATCC 65389; 18 h at 37 °C; Control 21.36, Control with DMSO 20.85. The data set is classed as cell-based. As to the method: as §1
For the molecule `CC1CC(=O)OC(c2ccccc2)C1Cl` (mixture of isomers) [6b, Cis,trans-5-chloro-tetrahydro-4-methyl-6-phenylpyran-2-one], the “Number of CFU/mL (× 10^7)” value is reported as 3.58 × 10^7 CFU/mL.
On the same count and under the same terms, the value for `CC1CC(=O)OC(c2ccc(F)cc2)C1Cl` (mixture of isomers) [6c, Cis,trans-5-chloro-6-(4-fluorophenyl)-tetrahydro-4-methylpyran-2-one] was 7.39 × 10^7 CFU/mL.

The data set is the same for the next values; noted with them: S. aureus ATCC 65389; versus control.
Regarding `CC1CC(=O)OC(c2ccccc2)C1Cl` (mixture of isomers) [6b, Cis,trans-5-chloro-tetrahydro-4-methyl-6-phenylpyran-2-one], the “less CFU/mL (reduction of the number of CFU/mL)” value is recorded as 78–83%.
The same measure, in the same setting: to `CC1CC(=O)OC(c2ccc(F)cc2)C1Cl` (mixture of isomers) [6c, Cis,trans-5-chloro-6-(4-fluorophenyl)-tetrahydro-4-methylpyran-2-one] belongs 83%.

The test system of the next data set is AGS cell lines (human gastric adenocarcinoma). Nature of the data set: MTT reduction cytotoxicity assay. The data set is classed as cell-based.
Conditions: not given
The protocol:
(§2) Cell cultures: The L929 mouse fibroblasts and human gastric adenocarcinoma cell line AGS were used for in vitro cytotoxicity assays. The cells were maintained under standard conditions (37 ^∘ C, 5% CO 2 ) in 25 cm^2 tissue culture flasks in RPMI-1640 medium supplemented with 10% fetal bovine serum (FBS) and antibiotics: 100 U/mL penicillin and 100 μ g/mL streptomycin. The cell suspension containing 10 ^8 cells in 1 mL, was obtained by treatment of confluent monolayers with 0.25% trypsin solution, washed and subcultured. Cell cultures were supplemented with medium to maintain them in log phase growth. The viability of the cells was assessed by exclusion of trypan blue dye.
(§3) Measurements of cellular metabolic activity and global growth inhibition: L929 cells were seeded into 96-well plates (2 × 10 ^5 cells/well) for 24 h, at 37 ^∘ C, 5% CO2 . Tested compounds 5a–c, 6a–c, 7a–c, 8a–c, 9b,c, 10b,c, 12a and 13a were diluted serially in RPMI-1640 medium in concentrations of 50, 20, 10, 5, 0.5 and 0.1 μ g/mL, added to the cells (100 μ L/well), and incubated under standard conditions for 24 h. The potential harmful effect of lactones on L929 and AGS cells was assessed by the ability of the cells to reduce 3-(4,5-dimethylthiazol-2-yl)-2,5-diphenyltetrazolium bromide (MTT) to formazan. The solution of MTT (5 mg/mL in PBS), was added to each well and the plates were incubated for 4h at 37 ^∘ C. Formazan crystals were dissolved with acidic isopropanol (0.1 M HCl in absolute isopropanol) and the plates were read in a plate reader (Victor 2) at 570 nm. The percentage of MTT reduction was calculated by comparing the absorbance of treated cells to that of untreated control cells. Results are expressed as the mean percentage of viable cells ± standard deviation (SD) of four independent experiments. Statistical significance was accepted at a p-value < 0.05.
`CC1CC(=O)OC(c2ccccc2)C1Cl` (mixture of isomers) [6b, Cis,trans-5-chloro-tetrahydro-4-methyl-6-phenylpyran-2-one]: the midpoint of inhibition, the IC50, lay at 4.4 µM.
Still for that read-out and setting: the value for `CC1CC(=O)OC(c2ccc(F)cc2)C1Cl` (mixture of isomers) [6c, Cis,trans-5-chloro-6-(4-fluorophenyl)-tetrahydro-4-methylpyran-2-one] was 2.9 µM.

Staying with this data set, now noted: 0.1 μg/mL, 24 h.
For the molecule `CC1CC(=O)OC(c2ccccc2)C1Cl` (mixture of isomers) [6b, Cis,trans-5-chloro-tetrahydro-4-methyl-6-phenylpyran-2-one], the “mean percentage of viable cells ± SD” value was 42 ± 0.02%.
Same read-out and setting: to `CC1CC(=O)OC(c2ccc(F)cc2)C1Cl` (mixture of isomers) [6c, Cis,trans-5-chloro-6-(4-fluorophenyl)-tetrahydro-4-methylpyran-2-one] belongs 49 ± 0.10%.

The same data set, now with this note: 0.5 μg/mL, 24 h.
For `CC1CC(=O)OC(c2ccccc2)C1Cl` (mixture of isomers) [6b, Cis,trans-5-chloro-tetrahydro-4-methyl-6-phenylpyran-2-one], the “mean percentage of viable cells ± SD” value was 35 ± 0.02%.
Same read-out and setting: the value for `CC1CC(=O)OC(c2ccc(F)cc2)C1Cl` (mixture of isomers) [6c, Cis,trans-5-chloro-6-(4-fluorophenyl)-tetrahydro-4-methylpyran-2-one] was 37 ± 0.05%.

Staying with this data set, now noted: 5 μg/mL, 24 h.
As for `CC1CC(=O)OC(c2ccccc2)C1Cl` (mixture of isomers) [6b, Cis,trans-5-chloro-tetrahydro-4-methyl-6-phenylpyran-2-one], the “mean percentage of viable cells ± SD” value is reported as 28 ± 0.03%.
`CC1CC(=O)OC(c2ccc(F)cc2)C1Cl` (mixture of isomers) [6c, Cis,trans-5-chloro-6-(4-fluorophenyl)-tetrahydro-4-methylpyran-2-one]: the “mean percentage of viable cells ± SD” value came to 28 ± 0.06%.

Still in this data set, the particulars now being: 10 μg/mL, 24 h.
Regarding `CC1CC(=O)OC(c2ccccc2)C1Cl` (mixture of isomers) [6b, Cis,trans-5-chloro-tetrahydro-4-methyl-6-phenylpyran-2-one], the “mean percentage of viable cells ± SD” value came to 21 ± 0.02%.
For the molecule `CC1CC(=O)OC(c2ccc(F)cc2)C1Cl` (mixture of isomers) [6c, Cis,trans-5-chloro-6-(4-fluorophenyl)-tetrahydro-4-methylpyran-2-one], the “mean percentage of viable cells ± SD” value is 16 ± 0.10%.

The same data set, now with this note: 20 μg/mL, 24 h.
Consider `CC1CC(=O)OC(c2ccccc2)C1Cl` (mixture of isomers) [6b, Cis,trans-5-chloro-tetrahydro-4-methyl-6-phenylpyran-2-one], for which the “mean percentage of viable cells ± SD” value came out at 14 ± 0.07%.
In the case of `CC1CC(=O)OC(c2ccc(F)cc2)C1Cl` (mixture of isomers) [6c, Cis,trans-5-chloro-6-(4-fluorophenyl)-tetrahydro-4-methylpyran-2-one], the “mean percentage of viable cells ± SD” value amounted to 14 ± 0.07%.

Still in this data set, the particulars now being: 50 μg/mL, 24 h.
For the molecule `CC1CC(=O)OC(c2ccccc2)C1Cl` (mixture of isomers) [6b, Cis,trans-5-chloro-tetrahydro-4-methyl-6-phenylpyran-2-one], the “mean percentage of viable cells ± SD” value came to 8 ± 0.06%.
In the case of `CC1CC(=O)OC(c2ccc(F)cc2)C1Cl` (mixture of isomers) [6c, Cis,trans-5-chloro-6-(4-fluorophenyl)-tetrahydro-4-methylpyran-2-one], the “mean percentage of viable cells ± SD” value stood at 6 ± 0.08%.

The next data set deals with L929 cell lines (mouse fibroblasts). The data set is described as follows: MTT reduction cytotoxicity assay. The data set is classed as cell-based. As to conditions: 0.1 μg/mL, 24 h. The protocol:
as §2, §3
On to `CC1CC(=O)OC(c2ccccc2)C1Cl` (mixture of isomers) [6b, Cis,trans-5-chloro-tetrahydro-4-methyl-6-phenylpyran-2-one], for which the “mean percentage of viable cells ± SD” value stood at 32 ± 0.07%.
Consider `CC1CC(=O)OC(c2ccc(F)cc2)C1Cl` (mixture of isomers) [6c, Cis,trans-5-chloro-6-(4-fluorophenyl)-tetrahydro-4-methylpyran-2-one], for which the “mean percentage of viable cells ± SD” value is listed as 24 ± 0.03%.

The data set is the same for the next values; noted with them: 0.5 μg/mL, 24 h.
As to `CC1CC(=O)OC(c2ccccc2)C1Cl` (mixture of isomers) [6b, Cis,trans-5-chloro-tetrahydro-4-methyl-6-phenylpyran-2-one], the “mean percentage of viable cells ± SD” value is reported as 27 ± 0.12%.
Still for that read-out and setting: to `CC1CC(=O)OC(c2ccc(F)cc2)C1Cl` (mixture of isomers) [6c, Cis,trans-5-chloro-6-(4-fluorophenyl)-tetrahydro-4-methylpyran-2-one] belongs 22 ± 0.05%.

Staying with this data set, now noted: 5 μg/mL, 24 h.
Turning to `CC1CC(=O)OC(c2ccccc2)C1Cl` (mixture of isomers) [6b, Cis,trans-5-chloro-tetrahydro-4-methyl-6-phenylpyran-2-one], the “mean percentage of viable cells ± SD” value was found to be 25 ± 0.02%.
`CC1CC(=O)OC(c2ccc(F)cc2)C1Cl` (mixture of isomers) [6c, Cis,trans-5-chloro-6-(4-fluorophenyl)-tetrahydro-4-methylpyran-2-one]: the “mean percentage of viable cells ± SD” value was determined as 18 ± 0.12%.

The data set is the same for the next values; noted with them: 10 μg/mL, 24 h.
For the molecule `CC1CC(=O)OC(c2ccccc2)C1Cl` (mixture of isomers) [6b, Cis,trans-5-chloro-tetrahydro-4-methyl-6-phenylpyran-2-one], the “mean percentage of viable cells ± SD” value is 16 ± 0.03%.
Turning to `CC1CC(=O)OC(c2ccc(F)cc2)C1Cl` (mixture of isomers) [6c, Cis,trans-5-chloro-6-(4-fluorophenyl)-tetrahydro-4-methylpyran-2-one], the “mean percentage of viable cells ± SD” value turned out to be 9 ± 0.05%.

Still in this data set, the particulars now being: 20 μg/mL, 24 h.
In the case of `CC1CC(=O)OC(c2ccccc2)C1Cl` (mixture of isomers) [6b, Cis,trans-5-chloro-tetrahydro-4-methyl-6-phenylpyran-2-one], the “mean percentage of viable cells ± SD” value is 4 ± 0.15%.
As to `CC1CC(=O)OC(c2ccc(F)cc2)C1Cl` (mixture of isomers) [6c, Cis,trans-5-chloro-6-(4-fluorophenyl)-tetrahydro-4-methylpyran-2-one], the “mean percentage of viable cells ± SD” value amounted to 4 ± 0.08%.

Staying with this data set, now noted: 50 μg/mL, 24 h.
With `CC1CC(=O)OC(c2ccccc2)C1Cl` (mixture of isomers) [6b, Cis,trans-5-chloro-tetrahydro-4-methyl-6-phenylpyran-2-one], the “mean percentage of viable cells ± SD” value was determined as 2 ± 0.05%.
For `CC1CC(=O)OC(c2ccc(F)cc2)C1Cl` (mixture of isomers) [6c, Cis,trans-5-chloro-6-(4-fluorophenyl)-tetrahydro-4-methylpyran-2-one], the “mean percentage of viable cells ± SD” value came out at 2 ± 0.02%.
